Read-outs that look alike come from different tables or passages of the source.
What was measured:
[1] = target: CK1ε (Homo sapiens, UniProt P49674); test: CK1ε kinase assay (Caliper LabChip electrophoretic separation of fluoresceinated peptide substrate and product); format: biochemical; details: 200 pM CK1ε, 50 μM ATP, 1.5 μM peptide, 22 hours at room temperature
Protocol: CK1ε and CK1δ Kinase Assays
The kinase assay was performed in V-bottom 384-well plates. […] The reaction was incubated at room temperature for 22 hours and terminated by adding 45 μl of 35 mM EDTA to each sample. The reaction mixture was analyzed on the Caliper LABCHIP®3000 (Caliper, Hopkinton, Mass.) by electrophoretic separation of the unphosphorylated substrate and phosphorylated product. […] Compounds were dissolved at 10 mM in dimethylsulfoxide (DMSO) and evaluated at eleven concentrations. IC50 values were derived by non-linear regression analysis.

[2] = target: CK1δ (Homo sapiens, UniProt P48730); test: CK1δ kinase assay (Caliper LabChip electrophoretic separation of fluoresceinated peptide substrate and product); format: biochemical; details: 200 pM CK1δ, 50 μM ATP, 1.5 μM peptide, 22 hours at room temperature
CK1δ, sequence (P48730 whole entry): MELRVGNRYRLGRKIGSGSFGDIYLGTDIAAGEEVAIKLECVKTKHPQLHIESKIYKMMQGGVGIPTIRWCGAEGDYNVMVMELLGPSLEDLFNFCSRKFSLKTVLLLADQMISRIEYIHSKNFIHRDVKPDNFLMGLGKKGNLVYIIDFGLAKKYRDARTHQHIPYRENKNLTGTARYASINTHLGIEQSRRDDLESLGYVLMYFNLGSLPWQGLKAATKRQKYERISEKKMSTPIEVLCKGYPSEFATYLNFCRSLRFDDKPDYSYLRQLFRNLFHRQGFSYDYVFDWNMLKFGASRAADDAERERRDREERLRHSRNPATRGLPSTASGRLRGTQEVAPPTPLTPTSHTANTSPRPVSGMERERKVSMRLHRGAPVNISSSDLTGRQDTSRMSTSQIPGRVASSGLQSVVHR
Summary of the method: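 Compounds, taken from 10 mM DMSO stocks, are titrated at eleven concentrations. Kinase reactions proceed for 22 hours at room temperature and are quenched with EDTA. Substrate and product are resolved electrophoretically, and IC50 values are fitted by non-linear regression.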

CK1ε, sequence (P49674 whole entry): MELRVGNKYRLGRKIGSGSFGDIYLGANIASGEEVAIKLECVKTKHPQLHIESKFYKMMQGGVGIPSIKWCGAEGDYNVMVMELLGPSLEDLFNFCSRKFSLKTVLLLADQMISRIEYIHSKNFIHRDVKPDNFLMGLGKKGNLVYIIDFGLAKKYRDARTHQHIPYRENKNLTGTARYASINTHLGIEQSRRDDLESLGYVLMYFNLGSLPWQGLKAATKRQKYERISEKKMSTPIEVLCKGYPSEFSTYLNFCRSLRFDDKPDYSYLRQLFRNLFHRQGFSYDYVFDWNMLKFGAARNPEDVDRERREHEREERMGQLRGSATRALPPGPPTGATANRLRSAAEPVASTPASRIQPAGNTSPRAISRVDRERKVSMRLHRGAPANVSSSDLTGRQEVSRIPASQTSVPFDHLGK

| SMILES | IC50 ([1]; read-out: CK1ε IC50 range) [nM] | IC50 ([2]; read-out: CK1δ IC50 range) [nM] | IC50 ([1]; read-out: CK1ε) [nM] | IC50 ([2]; read-out: CK1δ) [nM] |
| --- | --- | --- | --- | --- |
| CC1(NC(=O)N2CCn3nc(-c4ccc(F)c(Cl)c4)c(C(N)=O)c3C2)CC2(C1)CC2(F)F (single isomer, unassigned) [Compound 327, 2-(3-Chloro-4-fluorophenyl)-N5-(1,1-difluoro-5-methylspiro[2.3]hexan-5-yl)-6,7-dihydropyrazolo[1,5-a]pyrazine-3,5(4H)-dicarboxamide] | 0.01 to 10 | 0.01 to 10 | – | – |
| CC1(NC(=O)N2CCn3nc(-c4ccc(Cl)c(Cl)c4)c(C(N)=O)c3C2)CC2(C1)CC2(F)F (single isomer, unassigned) [Compound 328, 2-(3,4-Dichlorophenyl)-N^5-(1,1-difluoro-5-methylspiro[2.3]hexan-5-yl)-6,7-dihydropyrazolo[1,5-a]pyrazine-3,5(4H)-dicarboxamide] | 0.01 to 10 | 0.01 to 10 | – | – |
| CC1(NC(=O)N2CCn3nc(-c4ccc(Cl)c(Cl)c4)c(C(N)=O)c3C2)CC2(C1)CC2(F)F (single isomer, unassigned) [Compound 329, 2-(3,4-Dichlorophenyl)-N^5-(1,1-difluoro-5-methylspiro[2.3]hexan-5-yl)-6,7-dihydropyrazolo[1,5-a]pyrazine-3,5(4H)-dicarboxamide] | 0.01 to 10 | 0.01 to 10 | – | – |
| CC1(NC(=O)N2CCn3nc(-c4cccc(Cl)c4)c(C(N)=O)c3C2)CC2(C1)CC2(F)F (single isomer, unassigned) [Compound 330, 2-(3-Chlorophenyl)-N^5-(1,1-difluoro-5-methylspiro[2.3]hexan-5-yl)-6,7-dihydropyrazolo[1,5-a]pyrazine-3,5(4H)-dicarboxamide] | 0.01 to 10 | 0.01 to 10 | – | – |
| CC1(NC(=O)N2CCn3nc(-c4cccc(Cl)c4)c(C(N)=O)c3C2)CC2(C1)CC2(F)F (single isomer, unassigned) [Compound 331, 2-(3-Chlorophenyl)-N^5-(1,1-difluoro-5-methylspiro[2.3]hexan-5-yl)-6,7-dihydropyrazolo[1,5-a]pyrazine-3,5(4H)-dicarboxamide] | 0.01 to 10 | 0.01 to 10 | – | – |
| CC1Cn2nc(-c3ccc(F)c(Cl)c3)c(C(N)=O)c2CN1C(=O)NC(C)(C)C (single isomer, unassigned) [Compound 340, N^5-(tert-Butyl)-2-(3-chloro-4-fluorophenyl)-6-methyl-6,7-dihydropyrazolo[1,5-a]pyrazine-3,5(4H)-dicarboxamide] | 10 to 100 | 0.01 to 10 | – | – |
| CC1Cn2nc(-c3ccc(F)c(Cl)c3)c(C(N)=O)c2CN1C(=O)NC(C)(C)C (single isomer, unassigned) [Compound 341, N^5-(tert-Butyl)-2-(3-chloro-4-fluorophenyl)-6-methyl-6,7-dihydropyrazolo[1,5-a]pyrazine-3,5(4H)-dicarboxamide] | 0.01 to 10 | 10 to 100 | – | – |
| CC1Cn2nc(-c3ccc(F)c(Cl)c3)c(C(N)=O)c2CN1C(=O)NC1CC(F)(F)C1 (single isomer, unassigned) [Compound 342, 2-(3-Chloro-4-fluorophenyl)-N^5-(3,3-difluorocyclobutyl)-6-methyl-6,7-dihydropyrazolo[1,5-a]pyrazine-3,5(4H)-dicarboxamide] | 10 to 100 | 10 to 100 | – | – |
| CC1Cn2nc(-c3ccc(F)c(Cl)c3)c(C(N)=O)c2CN1C(=O)NC1CC(F)(F)C1 (single isomer, unassigned) [Compound 343, 2-(3-Chloro-4-fluorophenyl)-N^5-(3,3-difluorocyclobutyl)-6-methyl-6,7-dihydropyrazolo[1,5-a]pyrazine-3,5(4H)-dicarboxamide] | 0.01 to 10 | 0.01 to 10 | – | – |
| CC1Cn2nc(-c3ccc(F)c(Cl)c3)c(C(N)=O)c2CN1C(=O)NC1(C)CC(F)(F)C1 (single isomer, unassigned) [Compound 344, 2-(3-Chloro-4-fluorophenyl)-N^5-(3,3-difluoro-1-methylcyclobutyl)-6-methyl-6,7-dihydropyrazolo[1,5-a]pyrazine-3,5(4H)-dicarboxamide] | 0.01 to 10 | 0.01 to 10 | – | – |
| CC1Cn2nc(-c3ccc(F)c(Cl)c3)c(C(N)=O)c2CN1C(=O)NC1(C)CC(F)(F)C1 (single isomer, unassigned) [Compound 345, 2-(3-Chloro-4-fluorophenyl)-N^5-(3,3-difluoro-1-methylcyclobutyl)-6-methyl-6,7-dihydropyrazolo[1,5-a]pyrazine-3,5(4H)-dicarboxamide] | 0.01 to 10 | 0.01 to 10 | – | – |
| CC(C)(C)NC(=O)N1Cc2c(C(N)=O)c(-c3ccc(F)c(Cl)c3)nn2CC1C(F)(F)F (single isomer, unassigned) [Compound 346, N^5-(tert-Butyl)-2-(3-chloro-4-fluorophenyl)-6-(trifluoromethyl)-6,7-dihydropyrazolo[1,5-a]pyrazine-3,5(4H)-dicarboxamide] | 100 to 2000 | 100 to 2000 | – | – |
| CC(C)(C)NC(=O)N1Cc2c(C(N)=O)c(-c3ccc(F)c(Cl)c3)nn2CC1C(F)(F)F (single isomer, unassigned) [Compound 347, N^5-(tert-Butyl)-2-(3-chloro-4-fluorophenyl)-6-(trifluoromethyl)-6,7-dihydropyrazolo[1,5-a]pyrazine-3,5(4H)-dicarboxamide] | 0.01 to 10 | 10 to 100 | – | – |
| CC1(NC(=O)N2Cc3c(C(N)=O)c(-c4ccc(F)c(Cl)c4)nn3CC2C2CC2)CC(F)(F)C1 (single isomer, unassigned) [Compound 348, 2-(3-Chloro-4-fluorophenyl)-6-cyclopropyl-N^5-(3,3-difluoro-1-methylcyclobutyl)-6,7-dihydropyrazolo[1,5-a]pyrazine-3,5(4H)-dicarboxamide] | 10 to 100 | 100 to 2000 | – | – |
| CC1(NC(=O)N2Cc3c(C(N)=O)c(-c4ccc(F)c(Cl)c4)nn3CC2C2CC2)CC(F)(F)C1 (single isomer, unassigned) [Compound 349, 2-(3-Chloro-4-fluorophenyl)-6-cyclopropyl-N^5-(3,3-difluoro-1-methylcyclobutyl)-6,7-dihydropyrazolo[1,5-a]pyrazine-3,5(4H)-dicarboxamide] | 10 to 100 | 10 to 100 | 20.1 | 34.2 |

Now from value to molecule:

| IC50 ([1]; read-out: CK1ε IC50 range) [nM] | IC50 ([2]; read-out: CK1δ IC50 range) [nM] | IC50 ([1]; read-out: CK1ε) [nM] | IC50 ([2]; read-out: CK1δ) [nM] | SMILES |
| --- | --- | --- | --- | --- |
| 0.01 to 10 | 0.01 to 10 | – | – | CC(C)(C)NC(=O)N1Cc2c(C(N)=O)c(-c3ccc(F)c(Cl)c3)nn2C(CCO)C1 (single isomer, unassigned) [Compound A96, N^5-(tert-Butyl)-2-(3-chloro-4-fluorophenyl)-7-(2-hydroxyethyl)-6,7-dihydropyrazolo[1,5-a]pyrazine-3,5(4H)-dicarboxamide] |
| 0.01 to 10 | 10 to 100 | – | – | COCCC1CN(C(=O)NC(C)(C)C)Cc2c(C(N)=O)c(-c3ccc(F)c(Cl)c3)nn21 (single isomer, unassigned) [Compound A100, N^5-(tert-Butyl)-2-(3-chloro-4-fluorophenyl)-7-(2-methoxyethyl)-6,7-dihydropyrazolo[1,5-a]pyrazine-3,5(4H)-dicarboxamide] |
| 0.01 to 10 | 0.01 to 10 | – | – | COCCC1CN(C(=O)NC(C)(C)C)Cc2c(C(N)=O)c(-c3ccc(F)c(Cl)c3)nn21 (single isomer, unassigned) [Compound A101, N^5-(tert-Butyl)-2-(3-chloro-4-fluorophenyl)-7-(2-methoxyethyl)-6,7-dihydropyrazolo[1,5-a]pyrazine-3,5(4H)-dicarboxamide] |
| 0.01 to 10 | 0.01 to 10 | – | – | CC(C)(C)NC(=O)N1Cc2c(C(N)=O)c(-c3ccc(F)c(Cl)c3)nn2C(CCF)C1 (single isomer, unassigned) [Compound A102, N^5-(tert-Butyl)-2-(3-chloro-4-fluorophenyl)-7-(2-fluoroethyl)-6,7-dihydropyrazolo[1,5-a]pyrazine-3,5(4H)-dicarboxamide] |
| 0.01 to 10 | 0.01 to 10 | – | – | CC(C)(C)NC(=O)N1Cc2c(C(N)=O)c(-c3ccc(F)c(Cl)c3)nn2C(CCF)C1 (single isomer, unassigned) [Compound A103, N^5-(tert-Butyl)-2-(3-chloro-4-fluorophenyl)-7-(2-fluoroethyl)-6,7-dihydropyrazolo[1,5-a]pyrazine-3,5(4H)-dicarboxamide] |
| 100 to 2000 | 100 to 2000 | – | – | CC(C)(C)NC(=O)N1Cc2c(C(N)=O)c(-c3cccc(F)c3)nn2C(CF)C1 (single isomer, unassigned) [Compound A106, N^5-(tert-Butyl)-7-(fluoromethyl)-2-(3-fluorophenyl)-6,7-dihydropyrazolo[1,5-a]pyrazine-3,5(4H)-dicarboxamide] |
| 0.01 to 10 | 0.01 to 10 | – | – | CC(C)(C)NC(=O)N1Cc2c(C(N)=O)c(-c3cccc(F)c3)nn2C(CF)C1 (single isomer, unassigned) [Compound A107, N^5-(tert-Butyl)-7-(fluoromethyl)-2-(3-fluorophenyl)-6,7-dihydropyrazolo[1,5-a]pyrazine-3,5(4H)-dicarboxamide] |
| 10 to 100 | 10 to 100 | – | – | CC1CN(C(=O)NC(C)(C)C)Cc2c(C(N)=O)c(-c3cccc(F)c3)nn21 (single isomer, unassigned) [Compound A108, N^5-(tert-Butyl)-2-(3-fluorophenyl)-7-methyl-6,7-dihydropyrazolo[1,5-a]pyrazine-3,5(4H)-dicarboxamide] |
| 0.01 to 10 | 0.01 to 10 | – | – | CC1CN(C(=O)NC(C)(C)C)Cc2c(C(N)=O)c(-c3cccc(F)c3)nn21 (single isomer, unassigned) [Compound A109, N^5-(tert-Butyl)-2-(3-fluorophenyl)-7-methyl-6,7-dihydropyrazolo[1,5-a]pyrazine-3,5(4H)-dicarboxamide] |

Reference: US9273058B2 (BRISTOL-MYERS SQUIBB COMPANY, priority 2013, dated 2016)
